From US8802720B2, “Acylamino-substituted fused cyclopentanecarboxylic acid derivatives and their use as pharmaceuticals” (SANOFI, priority 2008, dated 2014)

What follows are compounds tested against human Edg-2 receptor (LPA1 receptor) (Homo sapiens, UniProt Q92633) (assay: Edg-2 receptor inhibition by FLIPR calcium fluorescence measurement (LPA-mediated calcium liberation)). Conditions: CHO cells stably overexpressing human Edg-2 receptor; LPA 18:1 100 nM; fluo-4 fluorescence; triplicate; read-out: Inhibitory concentrations IC50 for inhibition of the Edg-2 receptor.
Sequence of human Edg-2 receptor (LPA1 receptor) (Q92633 whole entry): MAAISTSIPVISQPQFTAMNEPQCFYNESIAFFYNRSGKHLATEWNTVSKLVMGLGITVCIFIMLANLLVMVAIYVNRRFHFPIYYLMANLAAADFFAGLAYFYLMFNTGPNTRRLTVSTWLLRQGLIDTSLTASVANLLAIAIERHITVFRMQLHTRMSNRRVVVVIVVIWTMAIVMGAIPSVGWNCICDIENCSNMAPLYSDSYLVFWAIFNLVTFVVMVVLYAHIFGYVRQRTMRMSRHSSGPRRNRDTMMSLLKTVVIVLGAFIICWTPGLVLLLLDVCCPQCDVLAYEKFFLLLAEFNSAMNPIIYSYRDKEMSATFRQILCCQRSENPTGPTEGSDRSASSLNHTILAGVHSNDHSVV
Assay type: cell-based
In short: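 CHO cells stably overexpressing human Edg-2 were fluo-4 loaded and pre-incubated ~5 min with compound (≤0.3% DMSO) in HBSS/HEPES/probenecid, pH 7.5. Then LPA 18:1 at 100 nM final was added. Peak calcium fluorescence over ~3 min, baseline-corrected versus DMSO, gave % inhibition in triplicate and IC50.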
In the case of `COc1ccc(C(=O)NC2(C(=O)O)Cc3ccc(F)cc3C2)cc1OCCc1cccc(C)c1` (stereo not drawn) [Example 157, 5-Fluoro-2-[4-methoxy-3-(2-m-tolyl-ethoxy)-benzoylamino]-indane-2-carboxylic acid], the IC50 is reported as < 100 nM. Compound `COc1ccc(C(=O)NC2(C(=O)O)Cc3cc(C)c(C)cc3C2)cc1OCCc1cccc(C)c1` [Example 158, 2-[4-Methoxy-3-(2-m-tolyl-ethoxy)-benzoylamino]-5,6-dimethyl-indane-2-carboxylic acid] has an IC50 of 100 to 1000 nM. `COc1ccc2c(c1)CC(NC(=O)c1ccc(OC)c(OCCc3cccc(C)c3)c1)(C(=O)O)C2` (stereo not drawn) [Example 159, 5-Methoxy-2-[4-methoxy-3-(2-m-tolyl-ethoxy)-benzoylamino]-indane-2-carboxylic acid] was tested, and the IC50 was < 100 nM. `COc1cc(C(=O)NC2(C(=O)O)Cc3ccccc3C2)ccc1OCCc1cccc(Cl)c1` [Example 161, 2-{4-[2-(3-Chloro-phenyl)-ethoxy]-3-methoxy-benzoylamino}-indane-2-carboxylic acid] gave an IC50 of 1000 to 30000 nM. For `COc1cc(C(=O)NC2(C(=O)O)Cc3ccccc3C2)ccc1OCCc1ccccc1Cl` [Example 162, 2-{4-[2-(2-Chloro-phenyl)-ethoxy]-3-methoxy-benzoylamino}-indane-2-carboxylic acid], the IC50 was 1000 to 30000 nM. `Cc1cccc(CCOc2cc(C(=O)NC3(C(=O)O)Cc4ccccc4C3)ccc2N)c1` [Example 163, 2-[4-Amino-3-(2-m-tolyl-ethoxy)-benzoylamino]-indane-2-carboxylic acid] gave an IC50 of 100 to 1000 nM. With `CNc1ccc(C(=O)NC2(C(=O)O)Cc3ccccc3C2)cc1OCCc1cccc(C)c1` [Example 164, 2-[4-Methylamino-3-(2-m-tolyl-ethoxy)-benzoylamino]-indane-2-carboxylic acid] the IC50 was < 100 nM. `Cc1cccc(CCOc2cc(C(=O)NC3(C(=O)O)Cc4ccccc4C3)ccc2N(C)C)c1` [Example 165, 2-[4-Dimethylamino-3-(2-m-tolyl-ethoxy)-benzoylamino]-indane-2-carboxylic acid] showed an IC50 of 100 to 1000 nM. `Cc1cccc(CCOc2cc(C(=O)NC3(C(=O)O)Cc4ccccc4C3)ccc2NC(C)C)c1` [Example 166, 2-[4-Isopropylamino-3-(2-m-tolyl-ethoxy)-benzoylamino]-indane-2-carboxylic acid] gave an IC50 of 100 to 1000 nM. With `COc1ccc(C(=O)NC2(C(=O)O)Cc3ccccc3C2)cc1OCC(O)c1ccccc1F` (stereo not drawn) [Example 167, 2-{3-[2-(2-Fluoro-phenyl)-2-hydroxy-ethoxy]-4-methoxy-benzoylamino}-indane-2-carboxylic acid] the IC50 was 1000 to 30000 nM. In the case of `Cc1cccc(CCOc2cc(C(=O)NC3(C(=O)O)Cc4ccccc4C3)ccc2C#N)c1` [Example 168, 2-[4-Cyano-3-(2-m-tolyl-ethoxy)-benzoylamino]-indane-2-carboxylic acid], the IC50 is reported as < 100 nM. With `COc1ccc(C(=O)NC2(C(=O)O)Cc3ccccc3C2)cc1CCCc1ccccc1` [Example 169, 2-[4-Methoxy-3-(3-phenyl-propyl)-benzoylamino]-indane-2-carboxylic acid] the IC50 was 100 to 1000 nM. For `COc1ccc(C(=O)NC2(C(=O)O)Cc3ccccc3C2)cc1NCCc1cccc(C)c1` [Example 171, 2-[4-Methoxy-3-(2-m-tolyl-ethylamino)-benzoylamino]-indane-2-carboxylic acid], the IC50 was < 100 nM. Compound `COc1ccc(C(=O)NC2(C(=O)O)Cc3ccccc3C2)cc1N(C)CCc1cccc(C)c1` [Example 172, 2-{4-Methoxy-3-[methyl-(2-m-tolyl-ethyl)-amino]-benzoylamino}-indane-2-carboxylic acid] has an IC50 of 1000 to 30000 nM. `Cc1cccc(CCNc2cc(C(=O)NC3(C(=O)O)Cc4ccccc4C3)ccc2C#N)c1` [Example 173, 2-[4-Cyano-3-(2-m-tolyl-ethylamino)-benzoylamino]-indane-2-carboxylic acid] showed an IC50 of 1000 to 30000 nM. `N#Cc1ccc(C(=O)NC2(C(=O)O)Cc3ccccc3C2)cc1N1CCC(c2ccccc2)C1` (stereo not drawn) [Example 174, 2-[4-Cyano-3-[3-phenyl-pyrrolidin-1-yl)-benzoylamino]-indane-2-carboxylic acid] was tested, and the IC50 was 1000 to 30000 nM. Compound `N#Cc1ccc(C(=O)NC2(C(=O)O)Cc3ccccc3C2)cc1NCCc1ccccc1F` [Example 175, 2-{4-Cyano-3-[2-(2-fluoro-phenyl)-ethylamino]-benzoylamino}-indane-2-carboxylic acid] has an IC50 of 1000 to 30000 nM. `Cc1ccc(C(=O)NC2(C(=O)O)Cc3ccccc3C2)cc1OCCc1cccc(Cl)c1` [Example 176, 2-{3-[2-(3-Chloro-phenyl)-ethoxy]-4-methyl-benzoylamino}-indane-2-carboxylic acid] was tested, and the IC50 was < 100 nM. Work on `Cc1ccc(C(=O)NC2(C(=O)O)Cc3ccccc3C2)cc1OCCc1ccccc1F` [Example 177, 2-{3-[2-(2-Fluoro-phenyl)-ethoxy]-4-methyl-benzoylamino}-indane-2-carboxylic acid] yielded an IC50 of 100 to 1000 nM. In the case of `CCOc1ccc(C(=O)NC2(C(=O)O)Cc3ccccc3C2)cc1NCCc1cccc(C)c1` [Example 178, 2-[4-Ethoxy-3-(2-m-tolyl-ethylamino)-benzoylamino]-indane-2-carboxylic acid], the IC50 is reported as 1000 to 30000 nM. `Cc1cccc(CCNc2cc(C(=O)NC3(C(=O)O)Cc4ccccc4C3)ccc2O)c1` [Example 179, 2-[4-Hydroxy-3-(2-m-tolyl-ethylamino)-benzoylamino]-indane-2-carboxylic acid] was tested, and the IC50 was 100 to 1000 nM. For `COc1ccc(C(=O)NC2(C(=O)O)Cc3ccccc3C2)cc1SCCc1cccc(C)c1` [Example 180, 2-[4-Methoxy-3-(2-m-tolyl-ethylsulfanyl)-benzoylamino]-indane-2-carboxylic acid], the IC50 was < 100 nM. With `COc1ccc(C(=O)NC2(C(=O)O)Cc3ccccc3C2)cc1SCCc1cccc(Cl)c1` [Example 181, 2-{3-[2-(3-Chloro-phenyl)-ethylsulfanyl]-4-methoxy-benzoylamino}-indane-2-carboxylic acid] the IC50 was < 100 nM. `COc1ccc(C(=O)NC2(C(=O)O)Cc3ccccc3C2)cc1SCc1ccccc1` [Example 182, 2-(3-Benzylsulfanyl-4-methoxy-benzoylamino)-indane-2-carboxylic acid] gave an IC50 of 1000 to 30000 nM. `COc1ccc(C(=O)NC2(C(=O)O)Cc3ccccc3C2)cc1S(=O)(=O)CCc1cccc(C)c1` [Example 183, 2-[4-Methoxy-3-(2-m-tolyl-ethanesulfonyl)-benzoylamino]-indane-2-carboxylic acid] showed an IC50 of 1000 to 30000 nM. With `COc1ccc(C(=O)NC2(C(=O)O)Cc3ccccc3C2)cc1S(=O)(=O)CCc1cccc(Cl)c1` [Example 184, 2-{3-[2-(3-Chloro-phenyl)-ethanesulfonyl]-4-methoxy-benzoylamino}-indane-2-carboxylic acid] the IC50 was 1000 to 30000 nM. `Cc1cccc(CCOc2cc(C(=O)NC3(C(=O)O)Cc4ccccc4C3)ccc2C(F)(F)F)c1` [Example 185, 2-[3-(2-m-Tolyl-ethoxy)-4-trifluoromethyl-benzoylamino]-indane-2-carboxylic acid] was tested, and the IC50 was < 100 nM. For `O=C(NC1(C(=O)O)Cc2ccccc2C1)c1ccc(C(F)(F)F)c(OCCc2cccc(Cl)c2)c1` [Example 186, 2-{3-[2-(3-chloro-phenyl)-ethoxy]-4-trifluoromethyl-benzoylamino}-indane-2-carboxylic acid], the IC50 was < 100 nM. With `O=C(NC1(C(=O)O)Cc2ccccc2C1)c1ccc(C(F)(F)F)c(OCCc2c(F)cccc2Cl)c1` [Example 187] the IC50 was < 100 nM. With `O=C(NC1(C(=O)O)Cc2ccccc2C1)c1ccc(C(F)(F)F)c(OCCc2cc(F)ccc2F)c1` [Example 188] the IC50 was < 100 nM.
